A word on the IC50: it is the concentration needed to halve the response being measured.

A value given as a limit tells only on which side of the number the result lay.

The source of these data is patent publication US8158621B2, “Methods of treating or preventing autoimmune diseases with 2,4-pyrimidinediamine compounds” (Rigel Pharmaceuticals, Inc., priority 2002, dated 2012).

The first experiment concerns Human Jurkat T-cells (clone N). Kind of experiment: Jurkat T-cell activation (anti-TCR, CD69 upregulation). Format: cell-based.
Details: not given
The procedure, abridged: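 Jurkat cells in RPMI + 5% FBS preincubated with compound 1 h at 37 °C, then stimulated with anti-TCR C305 at 500 ng/ml for 20 h. CD69 surface expression stained with anti-CD69-APC and read by flow cytometry; IC50 versus solvent-only control.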
As for `CNC(=O)COc1cccc(Nc2nc(Nc3cccc(O)c3)ncc2C(F)(F)F)c1` [Compound R926741], the 50% inhibitory concentration (IC50) amounted to 4.59 µM.

The molecule `CNC(=O)COc1cccc(Nc2ncc(F)c(Nc3ccc(OC)c(CO)c3)n2)c1` [Compound R950386] registered an IC50 of 11.4 µM.

The molecule `OCCn1ncc2ccc(Nc3ncc(F)c(Nc4ccc5cnn(CCO)c5c4)n3)cc21` [Compound R935238] yielded an IC50 of 6.73 µM.

Molecule `Fc1cnc(Nc2cccc(NCCOCc3ccccc3)c2)nc1Nc1cccc(NCCOCc2ccccc2)c1` [Compound R950174] displayed an IC50 greater than 10 µM.

In the case of `Fc1cnc(Nc2cccc(C(F)(F)F)c2)nc1Nc1ccc2c(c1)OCCO2` [Compound R926805], the IC50 is greater than 10 µM.

The molecule `O=C(COc1cccc(Nc2ncc(F)c(Nc3ccc4c(c3)OCCO4)n2)c1)NC(CO)CO` [Compound R926784] had an IC50 of 2.38 µM.

In the case of `CNC(=O)COc1cccc(Nc2ncc(F)c(Nc3ccc(C)c(Cl)c3)n2)c1` [Compound R926839], the IC50 is 2.48 µM.

`CC1(C)Oc2ccc(Nc3nc(Cl)ncc3F)cc2NC1=O` [Compound R940322] returned an IC50 of 4.57 µM.

`CCOC(=O)C(C)(C)Oc1cccc(Nc2ncc(F)c(Nc3ccc4c(c3)OCCO4)n2)c1` [Compound R926907] showed an IC50 of 17.1 µM.

For the molecule `CC(C)(C)c1cccc(Nc2nc(Nc3cccc(OCC(=O)NC(CO)CO)c3)ncc2F)c1` [Compound R940296], the IC50 worked out at 1.23 µM.

Consider `COC(=O)Cn1ncc2cc(Nc3ncc(F)c(Nc4ccc5c(cnn5CC(=O)OC)c4)n3)ccc21` [Compound R935211], for which it took 7.06 µM to reach half-maximal inhibition (IC50).

For `CC(C)Oc1ccc(Nc2nc(Nc3ccc(OCc4nc(-c5ccccc5)no4)cc3)ncc2F)cc1` [Compound R935135], the concentration for half-maximal inhibition (IC50) is greater than 10 µM.

Turning to `CNC(=O)COc1cc(Nc2ncc(F)c(Nc3cccc(O)c3)n2)cc(OCC(=O)NC)c1` [Compound R926930], the IC50 is 10.5 µM.

Turning to `COC(=O)Cn1ncc2ccc(Nc3ncc(F)c(Nc4ccc5cnn(CC(=O)OC)c5c4)n3)cc21` [Compound R935205], the IC50 was determined as 10.7 µM.

For `CNC(=O)COc1cccc(Nc2ncc(F)c(Nc3ccc4c(c3)C(OC(C)=O)CCO4)n2)c1` (stereo not shown) [Compound R950382], half-maximal inhibition (IC50) was put at 1.55 µM.

The molecule `CNC(=O)COc1cccc(Nc2ncc(F)c(Nc3ccc4c(c3)C(N=[N+]=[N-])CCO4)n2)c1` (stereo not shown) [Compound R950383] displayed a concentration for half-maximal inhibition (IC50) of 1.03 µM.

On to `N#CCOc1ccc(Nc2ncc(F)c(Nc3ccc(OCC#N)cc3)n2)cc1` [Compound R945032], for which half-maximal inhibition (IC50) required 15.2 µM.

In the case of `O=C(CNc1cccc(Nc2ncc(F)c(Nc3cccc(NCCO)c3)n2)c1)NCCNCc1ccccc1` [Compound R950235], the midpoint of inhibition, the IC50, lay at 6.26 µM.

As to `O=C1CCOc2ccc(Nc3ncc(F)c(Nc4ccc5c(c4)C(=O)CCO5)n3)cc21` [Compound R950378], the IC50 is greater than 10 µM.

In turn, `COc1ccc(Nc2ncc(C)c(Nc3ccc(OC)c(-c4ccccc4)c3)n2)cc1-c1ccccc1` [Compound R935002] returned an IC50 greater than 10 µM.

As to `CCOC(=O)COc1cccc(Nc2ncc(F)c(Nc3cccc(C(C)(C)C)c3)n2)c1` [Compound R940270], the IC50 is greater than 10 µM.

`CCOC(=O)COc1cccc(Nc2ncc(F)c(Nc3cc(C)c(O)c(C)c3)n2)c1` [Compound R940253] returned an IC50 of 17.4 µM.

With `COC(=O)Cn1ncc2ccc(Nc3ncc(F)c(Nc4cccc(O)c4)n3)cc21` [Compound R935215], the IC50 is 7.96 µM.

`Cc1nc(COc2cccc(Nc3ncc(F)c(Nc4ccc5c(c4)OCCO5)n3)c2)no1` [Compound R945128] gave an IC50 of 4.31 µM.

In the case of `OB(O)c1cccc(Nc2ncc(F)c(Nc3cccc(B(O)O)c3)n2)c1` [Compound R926836], the IC50 turned out to be 14.5 µM.

As for `CNC(=O)Cn1ncc2cc(Nc3ncc(F)c(Nc4ccc5c(cnn5CC(=O)NC)c4)n3)ccc21` [Compound R935217], the IC50 was greater than 10 µM.

`O=C(CNc1cccc(Nc2ncc(F)c(Nc3cccc(O)c3)n2)c1)N1CCNCC1` [Compound R950222]: the IC50 turned out to be 2.01 µM.

`O=C(COc1cccc(Nc2ncc(F)c(Nc3ccc4c(c3)C(=O)OC4)n2)c1)NCC(O)CO` (stereo not shown) [Compound R940293] came in with an IC50 greater than 10 µM.

On to `Cc1cnc(Nc2ccc(OCc3nnnn3C)cc2)nc1Nc1cccc(O)c1` [Compound R920894], for which the half-maximal inhibitory concentration (IC50) came out at 2.02 µM.

On to `COC(=O)COc1cccc(Nc2ncc(F)c(Nc3cccc(O)c3)n2)c1` [Compound R945118], for which the IC50 amounted to 9.49 µM.

In turn, `FC(F)(F)c1cnc(Nc2ccc3c(c2)OCCO3)nc1Nc1ccc2c(c1)OCCO2` [Compound R920669] yielded a half-maximal inhibitory concentration (IC50) of 19.8 µM.

`CNC(=O)COc1cccc(Nc2ncc(F)c(Nc3ccc(OC)c(CN(C)C)c3)n2)c1` [Compound R940321] came in with an IC50 of 3.68 µM.

For `CC(C)Oc1ccc(Nc2ncc(F)c(Nc3ccc4c(cnn4C)c3)n2)cc1` [Compound R935203], the 50% inhibitory concentration (IC50) is greater than 10 µM.

`COC(=O)COc1cccc(Nc2ncc(F)c(Nc3ccc(OC(C)C)cc3)n2)c1` [Compound R945125] yielded a 50% inhibitory concentration (IC50) greater than 10 µM.

`O=C(NCCNCc1ccccc1)c1cc2cc(Nc3ncc(F)c(Nc4ccc5oc(C(=O)NCCNCc6ccccc6)cc5c4)n3)ccc2o1` [Compound R950169] registered an IC50 greater than 10 µM.

Molecule `CNCc1cccc(Nc2nc(Nc3cccc(OCC(=O)NC)c3)ncc2F)c1` [Compound R940317] displayed an IC50 of 3.28 µM.

Take `NC(=O)COc1ccc(Nc2nc(Nc3ccc4c(c3)OCCO4)ncc2F)cc1` [Compound R945171]: the IC50 stood at 3.19 µM.

`Oc1cccc(Nc2nc(Nc3ccc4cn[nH]c4c3)ncc2F)c1` [Compound R935191] gave an IC50 of 2.94 µM.

As to `CNC(=O)COc1cccc(Nc2ncc(F)c(Nc3ccc(C(C)(C)C)cc3)n2)c1` [Compound R926714], the IC50 was 5.63 µM.

Turning to `CC(C)(C)c1cccc(Nc2nc(Nc3cccc(OCC(=O)NCC(O)CO)c3)ncc2F)c1` (stereo not shown) [Compound R940277], the IC50 was 1.22 µM.

In turn, `CNC(=O)CCn1ncc2ccc(Nc3ncc(F)c(Nc4cccc(O)c4)n3)cc21` [Compound R935294] yielded an IC50 of 8.16 µM.

Molecule `CNc1ncc(F)c(Nc2ccc3c(c2)OCCO3)n1` [Compound R950189] gave an IC50 of 22 µM.

`CNC(=O)CNc1cccc(Nc2ncc(F)c(Nc3ccc4c(c3)OCCO4)n2)c1` [Compound R950191]: half-maximal inhibition (IC50) was put at 2.59 µM.

Molecule `CNC(=O)COc1cccc(Nc2ncc(F)c(Nc3ccc4c(c3)C(=O)CCO4)n2)c1` [Compound R950345] displayed an IC50 of 6.09 µM.

In turn, `O=C(O)COc1ccc(Nc2ncc(F)c(Nc3ccc(OCC(=O)O)cc3)n2)cc1` [Compound R926560] displayed an IC50 greater than 10 µM.

Turning to `O=C(COc1cccc(Nc2ncc(F)c(Nc3ccc4c(c3)OCCO4)n2)c1)NCCO` [Compound R926505], half-maximal inhibition (IC50) required 1.15 µM.

Consider `CNC(=O)COc1cccc(Nc2ncc(F)c(Nc3ccc(OC)nc3)n2)c1` [Compound R926886], for which inhibition was half-maximal at 1.14 µM (IC50).

`CC(CO)Nc1cccc(Nc2ncc(F)c(Nc3cccc(NC(C)CO)c3)n2)c1` (stereo not shown) [Compound R950171] had an IC50 of 4.36 µM.

With `CC(C)(C)c1cccc(Nc2nc(Nc3cccc(OCC(=O)O)c3)ncc2F)c1` [Compound R940280], the IC50 is greater than 10 µM.

The experiment is the same for the next values; noted with them: Homo sapiens.
In the case of `O=[N+]([O-])c1ccc(F)c(Nc2ncc(F)c(Nc3cc([N+](=O)[O-])ccc3F)n2)c1` [Compound R950147], it took 14.8 µM to reach half-maximal inhibition (IC50).

The experiment is the same for the next values; noted with them: Homo sapiens, Jurkat.
Molecule `CCNC(=O)Nc1cccc(Nc2ncc(F)c(Nc3cccc(NC(=O)NCC)c3)n2)c1` [Compound R945045] displayed a half-maximal inhibitory concentration (IC50) of 7.6 µM.

Molecule `Cc1cc(Nc2ncc(F)c(Nc3cccc(C(C)(C)C)c3)n2)cc(Cl)c1O` [Compound R940271] gave a half-maximal inhibitory concentration (IC50) greater than 10 µM.

Turning to `COc1ccc(-c2ccccc2)cc1Nc1ccnc(Nc2cc(-c3ccccc3)ccc2OC)n1` [Compound R925805], the IC50 was greater than 10 µM.

`COc1ccc(Nc2ncc(F)c(Nc3ccc(OC)c(C(=O)O)c3)n2)cc1C(=O)O` [Compound R945067] had an IC50 greater than 10 µM.

The molecule `CC(C)Oc1ccc(Nc2ncc(F)c(Nc3cccc(N)c3)n2)cc1` [Compound R950165] returned an IC50 of 7.59 µM.

The molecule `CCOc1ccc(Nc2ccnc(Nc3ccc(OCC)cc3)n2)cc1` [Compound R926069] came in with a 50% inhibitory concentration (IC50) of 4.31 µM.

`Oc1cccc(Nc2cc(-c3ccccc3)nc(Nc3cccc(O)c3)n2)c1` [Compound R925812] returned an IC50 greater than 10 µM.

On to `O=c1ccc2cc(Nc3ncc(F)c(Nc4ccc5oc(=O)ccc5c4)n3)ccc2o1` [Compound R926617], for which the half-inhibitory concentration (IC50) is greater than 10 µM.

`N#Cc1cccc(Nc2nc(Nc3cccc(O)c3)ncc2F)c1` [Compound R945109] returned an IC50 of 9.64 µM.

As to `Fc1cc(Nc2ncc(F)c(Nc3ccc4c(c3)OCCO4)n2)cc(C(F)(F)F)c1` [Compound R926894], the IC50 was greater than 10 µM.

Take `Cc1cnc(Nc2ccccc2-c2ccccc2)nc1Nc1ccccc1-c1ccccc1` [Compound R926404]: the IC50 was greater than 10 µM.

`COc1cc(Nc2nc(Cl)ncc2F)c(OC)cc1Cl` [Compound R926858] gave an IC50 greater than 10 µM.

In turn, `COCCOc1cccc(Nc2ncc(F)c(Nc3cccc(OCCOC)c3)n2)c1` [Compound R935076] came in with an IC50 greater than 10 µM.

As for `OCc1cccc(Nc2nc(Nc3ccc4c(c3)OCCO4)ncc2F)c1` [Compound R925758], the IC50 is 18.2 µM.

Consider `COc1ccc(C(Nc2ncc(F)c(NC(c3ccc(OC)cc3)c3ccc(OC)cc3)n2)c2ccc(OC)cc2)cc1` [Compound R935004], for which the IC50 was greater than 10 µM.

The molecule `Fc1cnc(Nc2cccc(OC(F)(F)F)c2)nc1Nc1cccc(OC(F)(F)F)c1` [Compound R926038] came in with an IC50 greater than 10 µM.

The molecule `Nc1cccc(Nc2ccnc(Nc3cccc(N)c3)n2)c1` [Compound R950109] gave an IC50 of 12.8 µM.

Regarding `COC(=O)c1cc2cc(Nc3ncc(F)c(Nc4cccc(OC(C)C)c4)n3)ccc2o1` [Compound R926487], inhibition was half-maximal at 48.9 µM (IC50).

`Oc1cccc(Nc2nc(NCc3ccc4c(c3)OCCO4)ncc2F)c1` [Compound R945168] yielded an IC50 greater than 10 µM.

With `Fc1ccc(Nc2ncc(F)c(Nc3ccc4c(c3)OCCO4)n2)cc1` [Compound R926220], the IC50 was greater than 10 µM.
